Consider 1 compound from article PMC12363518, “Azobenzene-Modified Temperature-Responsive Short Elastin-like Peptides for Photo-Controlled Phase Transition” (ACS Synthetic Biology, 2025).

The nature of series [1]: Thermal isomerization in the dark and photostationary state, followed by UV–vis spectroscopy. The series is classed as physicochemical. The procedure:
The thermal stability of the ELP–azobenzene conjugates was also investigated by using UV–vis spectroscopy. After measurements under “UV–vis–UV” conditions, each peptide solution was incubated in the dark, and spectral changes were monitored over time (Figure ). […] These findings indicate that the photoswitching behavior of this peptide was more readily controllable than that of the other analogues.
Additionally, the isomerization of Azb-2(K-F2) to a cis-enriched state was induced by irradiation with UV-A light (365 nm), which is a commercially available light source (Figure S4). […] On the other hand, when an LED light with a higher irradiance than that used for spectrum measurements was used as the light source, Azb-2(K-F2) reached a photostationary state in approximately 5 min (Figure S4B). Overall, based on the experimental results, Azb-2(K-F2) appears to be a promising easy-to-handle peptide with both temperature and photoresponsiveness.
The synthesized ELP–azobenzene conjugates were dissolved in PBS buffer (137 mM NaCl, 2.68 mM KCl, 10 mM Na2HPO4, and 2 mM KH2PO4, pH 7.4) to prepare 50 μM solutions. The time-dependent UV–vis spectra of each conjugate were recorded using a JASCO V-660 spectral photometer (JASCO Co., Tokyo) in a quartz cell (optical path length: 10 mm, volume: 400 μL). […] Initially, the absorption spectra of the dark-adapted solution of the ELP–azobenzene conjugate were measured to determine the irradiation wavelength corresponding to its π–π* band. Subsequently, the ELP–azobenzene conjugate solution was irradiated with light corresponding to the π–π* band for 60 min and the absorption spectra were recorded every 10 min. Next, the peptide solution was irradiated with visible light corresponding to the n–π* band for 60 min and the absorption spectra were recorded every 10 min. The peptide solution was then irradiated again with UV light for 60 min and the absorption spectra were recorded every 10 min. Finally, the peptide solution was incubated in the dark conditions and the absorption spectra were recorded every 1 h. […]

A short description of series [2]: Optical / fluorescence microscopy of coacervates and Rhodamine B-loaded aggregates. The series is classed as physicochemical. The procedure:
To investigate the morphological properties of the ELP–azobenzene conjugates, a PBS solution of Azb-2(K-F2) was observed by using optical microscopy at different temperatures under light-protected conditions. The Azb-2(K-F2) solution was almost homogeneous at 25 °C (Figure A). However, spherical coacervates of the peptide emerged at 35 °C and then rapidly matured into larger particles with diameters of several micrometers by increasing the temperature to 37 °C (Figure B,C). These particles stably exist under dark conditions (Figure D).
Azb-2(K-F2) was further studied to determine whether the chemical release from the peptide aggregates could be controlled by light irradiation. Azb-2(K-F2) and Rhodamine B (a red fluorescent dye) were heated in PBS to form coacervates, and a stable pellet of the aggregate was obtained by centrifugation. This pellet was composed of Azb-2(K-F2) coacervates containing rhodamine B with diameters of several micrometers, as shown in Figure . The structure of the obtained sample was observed over time by using optical and fluorescence microscopy under irradiation with monochromatic light at a wavelength of 365 nm (Figure ). Before light irradiation, the peptide aggregate containing Rhodamine B was observed as a red-colored amorphous structure with a size of approximately 600–700 μm. When irradiated with UV-A light, spherical particles (several micrometers in diameter) leaked from the surface of the aggregates and the red dye diffused accordingly. This dissociation process was considered to be the reverse of the stepwise phase separation in which ELP formed submicron-ordered aggregates and then matured to larger aggregates with diameters of several micrometers. […] In contrast, the peptide aggregate containing Rhodamine B was stable at 37 °C in the absence of UV-A light (Figure S12).
The morphology of the coacervates of the ELP–azobenzene conjugate Azb-2(K-F2) was observed by optical microscopy. The light field observation was performed using a Leica DM IL LED (Leica Microsystems CMS, Wetzlar, Germany) equipped with HI PLAN 40× (Leica Microsystems CMS), HC PLAN 10× (Leica Microsystems CMS), and a Leica EL6000 external light source (Leica Microsystems CMS). Azb-2(K-F2) was dissolved in PBS buffer at a concentration of 3 mg/mL. Sample imaging was performed at 25, 35, and 37 °C by using a Thermo Plate TP-CHSQM (Tokai Hit Co., Ltd., Shizuoka, Japan). […]
A time-course observation of Azb-2(K-F2) aggregates in the presence of a fluorescent dye was also performed. To the Azb-2(K-F2) solution (in phosphate buffer, pH 7.4, 3 mg/mL) was added Rhodamine B at a final concentration of 50 μM. The resulting solution was incubated at 37 °C for 4 h. Then, the solution was centrifuged for 20 s (6200 rpm) to obtain an aggregate of the peptide as a red pellet. The obtained peptide aggregate was washed with PBS buffer (37 °C, 50 μL, three times) and was used to make a prepared slide. Time-dependent observation of the prepared sample was carried out at 37 °C under irradiation with 365 nm monochromatic light.

Numbered stars: 1 amine (or outer) side, 2 acyl side, 3 side chain; on linkers, the order of the positions; unused ones are H or OH. Bridge positions count the residues as written; N and C are the ends. Peptide text beside a SMILES is read from it. I, II: the chains in the order shown. X1 = O=C(c1ccc(N=Nc2ccc(C(=O)[*:2])cc2)cc1)[*:1]

`CC(C)[C@H](NC(=O)CNC(=O)[C@@H]1CCCN1C(=O)[C@H](Cc1ccccc1)NC(=O)CNC(=O)[C@@H](NC(=O)CNC(=O)[C@@H]1CCCN1C(=O)[C@H](Cc1ccccc1)NC(=O)[C@H](CCCCN)NC(=O)c1ccc(N=Nc2ccc(C(=O)N[C@@H](CCCCN)C(=O)N[C@@H](Cc3ccccc3)C(=O)N3CCC[C@H]3C(=O)NCC(=O)N[C@H](C(=O)NCC(=O)N[C@@H](Cc3ccccc3)C(=O)N3CCC[C@H]3C(=O)NCC(=O)N[C@H](C(=O)NCC(=O)O)C(C)C)C(C)C)cc2)cc1)C(C)C)C(=O)NCC(=O)O` [Azb-2(K-F2)] (I: KFPGVGFPGVG-OH / II: KFPGVGFPGVG-OH; linker I:N-II:N via X1) registered a peak wavelength π–π* of 330 nm. In addition, in series [1] (37 °C for 12 h, light-protected, 50 μM in PBS, UV–vis spectra), the “thermal stability of the cis-enriched state, 12 h” value was “remained in a cis-enriched state”. In addition, in series [1] (UV-A 365 nm LED of higher irradiance than for the spectrum measurements), the “time to reach the photostationary state with LED light” value is reported as “approximately 5 min”. In addition, the “thermal stability of the cis-enriched state, 3 days” value in series [1] (dark, after 3 days, UV–vis spectra (Figure S3)) was “retained its cis-isomer-enriched state”. Also, the “aggregate containing Rhodamine B without UV-A light” value in series [2] (37 °C, absence of UV-A light (Figure S12)) is given as “stable”. Besides, the “aggregate containing Rhodamine B under continued UV-A irradiation” value in series [2] (optical and fluorescence microscopy, 37 °C, 365 nm monochromatic light, Rhodamine B 50 μM at loading) is “completely collapsed”. For the same compound, the “coacervate particles after UV-A irradiation” value in series [2] (optical microscopy, 3 mg/mL in PBS, 37 °C, UV-A 365 nm for 5 min) is “particles disappeared”. Further, in series [2] (optical microscopy, 3 mg/mL in PBS, 37 °C, room light 5 min after UV-A), the “coacervate particles after subsequent room light” value was “spherical aggregates reappeared”. In addition, the “temperature at which spherical coacervates emerged” value in series [2] (optical microscopy, 3 mg/mL in PBS, light-protected) turned out to be 35 °C.
